Publication PMC4690157, “Sulfur Isotope Effects of Dissimilatory Sulfite Reductase” (Frontiers in Microbiology, 2015)

Experiments:
D. vulgaris DsrAB = target: T1, D. vulgaris DsrAB (Nitratidesulfovibrio vulgaris, UniProt P45574+P45575); assay: sulfite loss over […] h by HPLC of monobromobimane derivatives; Michaelis-Menten fit; type: biochemical; conditions: H2 / [NiFe] hydrogenase / methyl viologen as electron donor system; 50 mM phosphate pH 7.1; anoxic; 20 or 31 °C (fractionation conditions)
T1 construct: gene dsvA; native, purified from D. vulgaris cells (Q-Sepharose); heterodimeric DsrAB with siroheme (desulfoviridin)
T1 sequence (P45574 2-437): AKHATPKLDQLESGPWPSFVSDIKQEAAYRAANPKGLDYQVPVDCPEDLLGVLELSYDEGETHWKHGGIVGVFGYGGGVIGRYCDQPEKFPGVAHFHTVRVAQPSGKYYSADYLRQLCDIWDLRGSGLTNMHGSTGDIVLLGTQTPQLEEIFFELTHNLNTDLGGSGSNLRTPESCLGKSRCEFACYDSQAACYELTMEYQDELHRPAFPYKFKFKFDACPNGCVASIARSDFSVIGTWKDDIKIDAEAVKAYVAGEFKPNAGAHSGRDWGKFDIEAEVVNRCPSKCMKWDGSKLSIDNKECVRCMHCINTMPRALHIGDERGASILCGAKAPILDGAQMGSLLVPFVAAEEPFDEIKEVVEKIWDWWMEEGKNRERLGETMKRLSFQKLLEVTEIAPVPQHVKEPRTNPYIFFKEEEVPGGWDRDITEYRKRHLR
T1 sequence (P45575 2-381): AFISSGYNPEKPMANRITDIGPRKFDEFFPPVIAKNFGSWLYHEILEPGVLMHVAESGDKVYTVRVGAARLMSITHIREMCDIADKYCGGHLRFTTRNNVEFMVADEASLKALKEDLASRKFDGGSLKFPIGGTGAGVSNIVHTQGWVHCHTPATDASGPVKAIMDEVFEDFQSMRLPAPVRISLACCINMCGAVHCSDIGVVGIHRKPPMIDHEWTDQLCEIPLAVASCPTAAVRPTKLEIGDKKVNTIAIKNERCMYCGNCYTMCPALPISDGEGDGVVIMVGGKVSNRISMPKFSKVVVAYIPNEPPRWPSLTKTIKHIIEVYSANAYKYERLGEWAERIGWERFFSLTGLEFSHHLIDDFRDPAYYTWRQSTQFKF

A. fulgidus DsrAB = target: T2, A. fulgidus DsrAB (Archaeoglobus fulgidus, UniProt Q59109+Q59110); assay: closed-system in vitro sulfite reduction; sulfite loss and product accumulation (fuchsin assay, cyanolysis); type: biochemical; conditions: 15 mM initial sulfite; 65 °C; pH 7.1; H2 / [NiFe] hydrogenase / methyl viologen as electron donor system
T2 construct: gene dsrA; native, purified from A. fulgidus cells; heterodimeric DsrAB with siroheme; free of DsrC
T2 sequence (Q59109 2-418): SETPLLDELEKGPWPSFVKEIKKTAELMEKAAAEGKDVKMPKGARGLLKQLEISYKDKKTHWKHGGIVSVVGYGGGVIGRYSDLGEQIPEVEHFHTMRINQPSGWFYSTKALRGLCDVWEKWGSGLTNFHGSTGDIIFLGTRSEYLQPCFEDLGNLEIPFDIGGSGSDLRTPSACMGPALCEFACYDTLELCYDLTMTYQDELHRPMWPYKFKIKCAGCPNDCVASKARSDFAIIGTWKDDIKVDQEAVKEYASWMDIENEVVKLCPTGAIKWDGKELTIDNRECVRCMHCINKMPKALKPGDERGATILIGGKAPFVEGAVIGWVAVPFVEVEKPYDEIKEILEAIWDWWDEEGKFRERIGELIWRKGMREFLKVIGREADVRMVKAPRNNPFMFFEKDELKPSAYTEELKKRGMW
T2 sequence (Q59110 whole entry): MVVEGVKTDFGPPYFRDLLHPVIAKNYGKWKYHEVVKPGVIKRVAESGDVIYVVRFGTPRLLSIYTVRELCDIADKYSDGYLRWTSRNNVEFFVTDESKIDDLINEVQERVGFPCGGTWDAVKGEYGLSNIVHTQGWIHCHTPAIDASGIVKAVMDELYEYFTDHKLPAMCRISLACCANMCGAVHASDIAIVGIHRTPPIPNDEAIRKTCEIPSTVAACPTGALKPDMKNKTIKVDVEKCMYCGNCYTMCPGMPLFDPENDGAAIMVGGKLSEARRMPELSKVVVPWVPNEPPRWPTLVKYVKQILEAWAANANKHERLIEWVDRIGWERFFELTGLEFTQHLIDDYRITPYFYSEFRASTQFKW

`O=S(O)O` [sulfite] was tested, and the Km (D. vulgaris DsrAB) was “solved for experimental Km and Vmax under our conditions” and the “closed-system in vitro sulfite reduction; sulfite loss and product accumulation” value (A. fulgidus DsrAB) was “showed consistent loss of sulfite and accumulation of products between replicates”.
